Earlier results as cited in patent US20250262182A1, “Beverage Composition and Process” (priority 2020, published 2025).
Read-outs that look alike come from different tables or passages of the source.

## NC(=O)NCCC[C@H](N)C(=O)O [L-citrulline]
Dosages in the range of 6 g to 10 g
  Adverse effects: mild gastrointestinal upset
Dosages in the range of 10 g to 15 g
  Adverse effects: stomach discomfort, bloating, or diarrhea
Dosages over 20 g
  Adverse effects: electrolyte imbalance and/or headaches
Dosages up to 6 g, most people
  Tolerability: generally well tolerated
